Source: patent publication US20100272680A1, “Piperidinyl Cyclic Amido Antiviral Agents” (priority 2009, published 2010)
pEC50: −log10 of the molar value.

Experiments:
HCV Genotype 1A Replicon = assay: Replicon assay, genotype 1a subgenomic replicon, luciferase readout; format: cell-based; details: Hepatitis C virus, 48 h, Table 3; luciferase activity after 48 hours
Outline: (§1)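 EC50 values came from four-parameter logistic fits of 10-point dose responses (3–4-fold steps, final 0.03–50 μM, 0.5–1% DMSO), normalized against no-compound and no-cell controls. Firefly luciferase was read 48 h after plating 0.5×10^4 replicon cells/well, 1b ET or 1a Apath-derived line.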

HCV Genotype 1B Replicon = assay: Replicon assay, genotype 1b subgenomic replicon (ET cell line), luciferase readout; format: cell-based; details: Hepatitis C virus, 48 h, Table 3; luciferase activity after 48 hours
Outline: as §1

Structure (SMILES)	pEC50 (HCV Genotype 1A Replicon)	pEC50 (HCV Genotype 1B Replicon)
CC(C)c1c(C(=O)N2CCC(N3CCOC3=O)CC2)nc2c(C(F)(F)F)cc(-c3ccoc3)cn12 [Compound 165, 3-(1-{[6-(3-furanyl)-3-(1-methylethyl)-8-(trifluoromethyl)imidazo[1,2-a]pyridin-2-yl]carbonyl}-4-piperidinyl)-1,3-oxazolidin-2-one]	≤ 5.30	≤ 5.30
O=C(c1nc2c(C(F)(F)F)cc(-c3ccoc3)cn2c1CO)N1CCC(N2CCOC2=O)CC1 [Compound 166, 3-(1-{[6-(3-furanyl)-3-(hydroxymethyl)-8-(trifluoromethyl)imidazo[1,2-a]pyridin-2-yl]carbonyl}-4-piperidinyl)-1,3-oxazolidin-2-one]	6.04	5.70
O=C(c1nc2c(C(F)(F)F)cc(-c3cn[nH]c3)cn2c1Cl)N1CCC(N2C(=O)CCC2=O)CC1 [Compound 167, 1-(1-{[3-chloro-6-(1H-pyrazol-4-yl)-8-(trifluoromethyl)imidazo[1,2-a]pyridin-2-yl]carbonyl}-4-piperidinyl)-2,5-pyrrolidinedione]	6.20	6.28
O=C(c1nc2c(C(F)(F)F)cc(-c3ccoc3)cn2c1Cl)N1CCC(N2C(=O)CCC2=O)CC1 [Compound 168, 1-(1-{[3-chloro-6-(3-furanyl)-8-(trifluoromethyl)imidazo[1,2-a]pyridin-2-yl]carbonyl}-4-piperidinyl)-2,5-pyrrolidinedione]	7.00	7.15
O=C(c1nc2c(C(F)(F)F)cc(-c3ccoc3)cn2c1Cl)N1CCC(N2CCNC2=O)CC1 [Compound 169, 1-(1-{[3-chloro-6-(3-furanyl)-8-(trifluoromethyl)imidazo[1,2-a]pyridin-2-yl]carbonyl}-4-piperidinyl)-2-imidazolidinone]	5.73	6.80
O=C(c1nc2c(C(F)(F)F)cc(-c3cn[nH]c3)cn2c1Cl)N1CCC(N2CCNC2=O)CC1 [Compound 170, 1-(1-{[3-chloro-6-(1H-pyrazol-4-yl)-8-(trifluoromethyl)imidazo[1,2-a]pyridin-2-yl]carbonyl}-4-piperidinyl)-2-imidazolidinone]	5.06	5.88
O=C1CN(C2CCN(C(=O)c3nc4c(C(F)(F)F)cc(-c5ccoc5)cn4c3Cl)CC2)C(=O)N1 [Compound 171, 1-(1-{[3-chloro-6-(3-furanyl)-8-(trifluoromethyl)imidazo[1,2-a]pyridin-2-yl]carbonyl}-4-piperidinyl)-2,4-imidazolidinedione]	6.09	6.24
O=C1CN(C2CCN(C(=O)c3nc4c(C(F)(F)F)cc(-c5cn[nH]c5)cn4c3Cl)CC2)C(=O)N1 [Compound 172, 1-(1-{[3-chloro-6-(1H-pyrazol-4-yl)-8-(trifluoromethyl)imidazo[1,2-a]pyridin-2-yl]carbonyl}-4-piperidinyl)-2,4-imidazolidinedione]	5.49	5.42
CN1CCN(C2CCN(C(=O)c3nc4c(C(F)(F)F)cc(-c5ccoc5)cn4c3Cl)CC2)C1=O [Compound 173, 1-(1-{[3-chloro-6-(3-furanyl)-8-(trifluoromethyl)imidazo[1,2-a]pyridin-2-yl]carbonyl}-4-piperidinyl)-3-methyl-2-imidazolidinone]	6.12	6.32
O=C(c1nc2c(C(F)(F)F)cc(-c3cn[nH]c3)cn2c1Cl)N1CCC(N2C(=O)CNC2=O)CC1 [Compound 174, 3-(1-{[3-chloro-6-(1H-pyrazol-4-yl)-8-(trifluoromethyl)imidazo[1,2-a]pyridin-2-yl]carbonyl}-4-piperidinyl)-2,4-imidazolidinedione]	4.60	5.64
O=C(c1nc2c(C(F)(F)F)cc(-c3ccoc3)cn2c1Cl)N1CCC(N2C(=O)CNC2=O)CC1 [Compound 175, 3-(1-{[3-chloro-6-(3-furanyl)-8-(trifluoromethyl)imidazo[1,2-a]pyridin-2-yl]carbonyl}-4-piperidinyl)-2,4-imidazolidinedione]	5.59	6.85
CC1(C)COC(=O)N1C1CCN(C(=O)c2nc3c(C(F)(F)F)cc(-c4ccoc4)cn3c2Cl)CC1 [Compound 176, 3-(1-{[3-chloro-6-(3-furanyl)-8-(trifluoromethyl)imidazo[1,2-a]pyridin-2-yl]carbonyl}-4-piperidinyl)-4,4-dimethyl-1,3-oxazolidin-2-one]	≤ 4.30	≤ 4.30
CC1(C)COC(=O)N1C1CCN(C(=O)c2nc3c(C(F)(F)F)cc(-c4cn[nH]c4)cn3c2Cl)CC1 [Compound 177, 3-(1-{[3-chloro-6-(1H-pyrazol-4-yl)-8-(trifluoromethyl)imidazo[1,2-a]pyridin-2-yl]carbonyl}-4-piperidinyl)-4,4-dimethyl-1,3-oxazolidin-2-one]	≤ 4.30	≤ 4.30
O=C(c1nc2c(C(F)(F)F)cc(-c3ccoc3)cn2c1Cl)N1CCC(N2C(=O)COC2=O)CC1 [Compound 178, 3-(1-{[3-chloro-6-(3-furanyl)-8-(trifluoromethyl)imidazo[1,2-a]pyridin-2-yl]carbonyl}-4-piperidinyl)-1,3-oxazolidine-2,4-dione]	7.70	7.52
O=C(c1nc2c(C(F)(F)F)cc(-c3cn[nH]c3)cn2c1Cl)N1CCC(N2C(=O)COC2=O)CC1 [Compound 179, 3-(1-{[3-chloro-6-(1H-pyrazol-4-yl)-8-(trifluoromethyl)imidazo[1,2-a]pyridin-2-yl]carbonyl}-4-piperidinyl)-1,3-oxazolidine-2,4-dione]	7.22	6.44
C[C@H]1COC(=O)N1C1CCN(C(=O)c2nc3c(C(F)(F)F)cc(-c4ccoc4)cn3c2Cl)CC1 [Compound 180, (4S)-3-(1-{[3-chloro-6-(3-furanyl)-8-(trifluoromethyl)imidazo[1,2-a]pyridin-2-yl]carbonyl}-4-piperidinyl)-4-methyl-1,3-oxazolidin-2-one]	5.79	5.55
CC1(C)CN(C2CCN(C(=O)c3nc4c(C(F)(F)F)cc(-c5ccoc5)cn4c3Cl)CC2)C(=O)O1 [Compound 181, 3-(1-{[3-chloro-6-(3-furanyl)-8-(trifluoromethyl)imidazo[1,2-a]pyridin-2-yl]carbonyl}-4-piperidinyl)-5,5-dimethyl-1,3-oxazolidin-2-one]	5.19	5.15
C[C@@H]1COC(=O)N1C1CCN(C(=O)c2nc3c(C(F)(F)F)cc(-c4ccoc4)cn3c2Cl)CC1 [Compound 182, (4R)-3-(1-{[3-chloro-6-(3-furanyl)-8-(trifluoromethyl)imidazo[1,2-a]pyridin-2-yl]carbonyl}-4-piperidinyl)-4-methyl-1,3-oxazolidin-2-one]	6.89	6.18
CC1(N2CCOC2=O)CCN(C(=O)c2nc3c(C(F)(F)F)cc(-c4ccoc4)cn3c2Cl)CC1 [Compound 183, 3-(1-{[3-chloro-6-(3-furanyl)-8-(trifluoromethyl)imidazo[1,2-a]pyridin-2-yl]carbonyl}-4-methyl-4-piperidinyl)-1,3-oxazolidin-2-one]	≤ 5.30	5.35
C[C@H]1CN(C2CCN(C(=O)c3nc4c(C(F)(F)F)cc(-c5ccoc5)cn4c3Cl)CC2)C(=O)O1 [Compound 184, (5S)-3-(1-{[3-chloro-6-(3-furanyl)-8-(trifluoromethyl)imidazo[1,2-a]pyridin-2-yl]carbonyl}-4-piperidinyl)-5-methyl-1,3-oxazolidin-2-one]	6.66	7.10
C[C@@H]1CN(C2CCN(C(=O)c3nc4c(C(F)(F)F)cc(-c5ccoc5)cn4c3Cl)CC2)C(=O)O1 [Compound 185, (5R)-3-(1-{[3-chloro-6-(3-furanyl)-8-(trifluoromethyl)imidazo[1,2-a]pyridin-2-yl]carbonyl}-4-piperidinyl)-5-methyl-1,3-oxazolidin-2-one]	5.83	5.81
O=C(c1nc2c(C(F)(F)F)cc(-c3ccoc3)cn2c1Cl)N1CCC(n2ccoc2=O)CC1 [Compound 186, 3-(1-{[3-chloro-6-(3-furanyl)-8-(trifluoromethyl)imidazo[1,2-a]pyridin-2-yl]carbonyl}-4-piperidinyl)-1,3-oxazol-2(3H)-one]	8.00	7.70
Nc1cc(C(F)(F)F)c2nc(C(=O)N3CCC(N4CCOC4=O)CC3)c(Cl)n2c1 [Compound 187, 3-(1-{[6-amino-3-chloro-8-(trifluoromethyl)imidazo[1,2-a]pyridin-2-yl]carbonyl}-4-piperidinyl)-1,3-oxazolidin-2-one]	5.33	5.79
C[C@@H]1OC(=O)N(C2CCN(C(=O)c3nc4c(C(F)(F)F)cc(-c5ccoc5)cn4c3Cl)CC2)C1=O [Compound 188, (5S)-3-(1-{[3-chloro-6-(3-furanyl)-8-(trifluoromethyl)imidazo[1,2-a]pyridin-2-yl]carbonyl}-4-piperidinyl)-5-methyl-1,3-oxazolidine-2,4-dione]	6.72	7.22
C[C@@H]1OC(=O)N(C2CCN(C(=O)c3nc4c(C(F)(F)F)cc(C5CC5)cn4c3Cl)CC2)C1=O [Compound 189, (5S)-3-(1-{[3-chloro-6-cyclopropyl-8-(trifluoromethyl)imidazo[1,2-a]pyridin-2-yl]carbonyl}-4-piperidinyl)-5-methyl-1,3-oxazolidine-2,4-dione]	6.66	7.52
C[C@@H]1OC(=O)N(C2CCN(C(=O)c3nc4c(C(F)(F)F)cc(Br)cn4c3Cl)CC2)C1=O [Compound 190, (5S)-3-(1-{[6-bromo-3-chloro-8-(trifluoromethyl)imidazo[1,2-a]pyridin-2-yl]carbonyl}-4-piperidinyl)-5-methyl-1,3-oxazolidine-2,4-dione]	5.82	7.15
C[C@H]1OC(=O)N(C2CCN(C(=O)c3nc4c(C(F)(F)F)cc(-c5ccoc5)cn4c3Cl)CC2)C1=O [Compound 191, (5R)-3-(1-{[3-chloro-6-(3-furanyl)-8-(trifluoromethyl)imidazo[1,2-a]pyridin-2-yl]carbonyl}-4-piperidinyl)-5-methyl-1,3-oxazolidine-2,4-dione]	6.68	7.40
